Results published in patent US9890185B2, “Urea derivatives useful as kinase inhibitors” (Respivert Limited, priority 2013, dated 2018).
Like-named read-outs stand apart in the source and are kept apart here.

Legend:
PBMCs = assay: LPS-induced IL-8 release in PBMC cells (assay b); assay type: cell-based, human; details: LPS-stimulated PBMCs, read-out: IC50 Values for Inhibition of Cytokine Release, PBMCs IL-8
Description: Peripheral blood mononuclear cells (PBMCs) from healthy subjects are separated from whole blood using a density gradient (Lymphoprep, Axis-Shield Healthcare). The PBMCs are seeded in 96 well plates and treated with compounds at the desired concentration for 2 hours before addition of 1 ng/mL LPS (Escherichia Coli 0111:B4 from Sigma Aldrich) for 24 hours under normal tissue culture conditions (37° C., 5% CO2). The supernatant is harvested for determination of IL-8 and TNFα concentrations by sandwich ELISA (Duo-set, R&D systems) and read on the fluorescence microplate reader (Varioskan® Flash, ThermoFisher Scientific). The concentration at 50% inhibition (IC50) of IL-8 and TNFα production is calculated from the dose response curve.

GSK 3α = GSK 3α (Homo sapiens (Human), UniProt P49840); assay: GSK 3α enzyme inhibition (FRET, Z-LYTE, Method 2); assay type: biochemical; details: read-out: IC50 Values for Enzyme Inhibition, GSK3α
Description: The enzyme inhibitory activities of compounds disclosed herein are determined by FRET using synthetic peptides labelled with both donor and acceptor fluorophores (Z-LYTE, Invitrogen Ltd., Paisley, UK).
The following two assay variants can be used for determination of GSK 3α inhibition.
The inhibitory activities of compounds of the invention against the GSK 3α enzyme isoform (Invitrogen), are evaluated by determining the level of activation/phosphorylation of the target peptide. The GSK3-α protein (500 ng/mL, 2.5 μL) is mixed with the test compound (2.5 μL at either 4 μg/mL, 0.4 μg/mL, 0.04 μg/mL, or 0.004 μg/mL) for 2 hr at RT. The FRET peptide (8 μM, 2.5 μL), which is a phosphorylation target for GSK3α, and ATP (40 μM, 2.5 μL) are then added to the enzyme/compound mixture and the resulting mixture incubated for 1 hr. Development reagent (protease, 5 μL) is added for 1 hr prior to detection in a fluorescence microplate reader (Varioskan® Flash, ThermoFisher Scientific).
In all cases, the site-specific protease cleaves non-phosphorylated peptide only and eliminates the FRET signal. Phosphorylation levels of each reaction are calculated using the ratio of coumarin emission (donor) over fluorescein emission (acceptor), for which high ratios indicate high phosphorylation and low ratios indicate low phosphorylation levels. The percentage inhibition of each reaction is calculated relative to non-inhibited control and the 50% inhibitory concentration (IC50 value) is then calculated from the concentration-response curve.
This method follows the same steps as Method 1 above, but utilises a shorter period of mixing of the test compound (105 minutes instead of 2 hours) with the GSK3-α protein.

GSK 3α, sequence (P49840 whole entry): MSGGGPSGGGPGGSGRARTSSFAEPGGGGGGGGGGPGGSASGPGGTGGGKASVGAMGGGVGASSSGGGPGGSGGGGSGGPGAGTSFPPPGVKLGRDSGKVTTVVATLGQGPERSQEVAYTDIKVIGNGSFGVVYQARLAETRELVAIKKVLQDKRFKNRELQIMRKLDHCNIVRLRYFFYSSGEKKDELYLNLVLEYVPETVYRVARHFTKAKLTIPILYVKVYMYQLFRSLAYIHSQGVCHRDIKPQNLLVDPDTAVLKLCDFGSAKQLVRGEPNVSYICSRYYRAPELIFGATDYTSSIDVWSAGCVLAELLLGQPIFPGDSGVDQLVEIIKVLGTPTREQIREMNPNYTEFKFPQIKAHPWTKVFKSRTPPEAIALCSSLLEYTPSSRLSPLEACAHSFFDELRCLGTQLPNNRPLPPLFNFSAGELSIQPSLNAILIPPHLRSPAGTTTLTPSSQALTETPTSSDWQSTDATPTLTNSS

SMILES	IC50 (PBMCs; Homo sapiens, PBMC) [nM]	IC50 (GSK 3α) [nM]	IC50 (PBMCs) [nM]
COc1c(NC(=O)Nc2ccc(Oc3ccnc(Nc4ccccc4)c3)c3ccccc23)cc(C(C)(C)C)cc1[S+](C)[O-] (single isomer, unassigned) [38(b2), 1-(5-(tert-Butyl)-2-methoxy-3-(methylsulfinyl)phenyl)-3-(4-((2-(phenylamino)pyridin-4-yl)oxy)naphthalen-1-yl)urea]	6	> 11100	
COc1c(NC(=O)Nc2ccc(Oc3ccnc(Nc4ccc5c(c4)C(=O)NC5)n3)c3ccccc23)cc(C(C)(C)C)cc1P(C)(C)=O [15(ab), 1-(5-(tert-butyl)-3-(dimethylphosphoryl)-2-methoxyphenyl)-3-(4-((2-((3-oxoisoindolin-5-yl)amino)pyrimidin-4-yl)oxy)naphthalen-1-yl)urea]	5.5	97	
CCP(=O)(CC)c1cc(C(C)(C)C)cc(NC(=O)Nc2ccc(Oc3ccnc(Nc4ccccc4)c3)c3ccccc23)c1OC [15(ac), 1-(5-(tert-butyl)-3-(diethylphosphoryl)-2-methoxyphenyl)-3-(4-((2-(phenylamino)-pyridin-4-yl)oxy)naphthalen-1-yl)urea]	9.1	> 14700	
COc1c(NC(=O)Nc2ccc(Oc3ccnc(Nc4cncc(N(C)C)n4)c3)c3ccccc23)cc(C(C)(C)C)cc1P(C)(C)=O [15(ae), 1-(5-(tert-butyl)-3-(dimethylphosphoryl)-2-methoxyphenyl)-3-(4-((2-((6-(dimethylamino)pyrazin-2-yl)amino)pyridin-4-yl)oxy)naphthalen-1-yl)urea]	3.9	871	
COc1c(NC(=O)Nc2ccc(Oc3ccnc(Nc4ccccc4)c3)c3ccccc23)cc(C(C)(C)C)cc1C(=O)NCCN1CCCC1 [15(ag), 5-(tert-butyl)-2-methoxy-3-(3-(4-((2-(phenylamino)pyridin-4-yl)oxy)naphthalen-1-yl)ureido)-N-(2-(pyrrolidin-1-yl)ethyl)benzamide]	9.8	5810	
COc1c(NC(=O)Nc2ccc(Oc3ccnc(NC4CCN(C)CC4)n3)c3ccccc23)cc(C(C)(C)C)cc1P(C)(C)=O [15(ah), 1-(5-(tert-butyl)-3-(dimethylphosphoryl)-2-methoxyphenyl)-3-(4-((2-((1-methylpiperidin-4-yl)amino)pyrimidin-4-yl)oxy)naphthalen-1-yl)urea]	299	602	
COc1c(NC(=O)Nc2ccc(Oc3ccnc(N[C@@H]4CCOC4)n3)c3ccccc23)cc(C(C)(C)C)cc1P(C)(C)=O [15(ai), (R)-1-(5-(tert-butyl)-3-(dimethylphosphoryl)-2-methoxyphenyl)-3-(4-((2-((tetrahydrofuran-3-yl)amino)pyrimidin-4-yl)oxy)naphthalen-1-yl)urea]	3.7	127	
COc1c(NC(=O)Nc2ccc(Oc3ccnc(N[C@H]4CCOC4)n3)c3ccccc23)cc(C(C)(C)C)cc1P(C)(C)=O [15(aj), (S)-1-(5-(tert-butyl)-3-(dimethylphosphoryl)-2-methoxyphenyl)-3-(4-((2-((tetrahydrofuran-3-yl)amino)pyrimidin-4-yl)oxy)naphthalen-1-yl)urea]	1.8	68	
COc1c(NC(=O)Nc2ccc(Oc3ccnc(NCCN4CCOCC4)n3)c3ccccc23)cc(C(C)(C)C)cc1P(C)(C)=O [15(al), 1-(5-(tert-butyl)-3-(dimethylphosphoryl)-2-methoxyphenyl)-3-(4-((2-((2-morpholinoethyl)amino)pyrimidin-4-yl)oxy)naphthalen-1-yl)urea]		339	3.7
COc1c(NC(=O)Nc2ccc(Oc3ccnc(Nc4cc(C)cc(Cl)c4)c3)c3ccccc23)cc(C(C)(C)C)cc1P(C)(C)=O [15(am), 1-(5-(tert-butyl)-3-(dimethylphosphoryl)-2-methoxyphenyl)-3-(4-((2-((3-chloro-5-methylmethylphenyl)amino)pyridin-4-yl)oxy)naphthalen-1-yl)urea]	6.1		
COc1c(NC(=O)Nc2ccc(Oc3ccnc(NCCn4cccn4)n3)c3ccccc23)cc(C(C)(C)C)cc1P(C)(C)=O [15(ao), 1-(4-((2-((2-(1H-pyrazol-1-yl)ethyl)amino)pyrimidin-4-yl)oxy)naphthalen-1-yl)-3-(5-(tert-butyl)-3-(dimethylphosphoryl)-2-methoxyphenyl)urea]	4.1	387	
Cc1c(NC(=O)Nc2ccc(Oc3ccnc(Nc4ccccc4)c3)c3ccccc23)cc(C(C)(C)C)cc1P(C)(C)=O [15(ap), 1-(5-(tert-butyl)-3-(dimethylphosphoryl)-2-methylphenyl)-3-(4-((2-(phenylamino)pyridin-4-yl)oxy)naphthalen-1-yl)urea]	48.3	> 16900	
COc1c(NC(=O)Nc2ccc(Oc3ccnc(Nc4cnn(C)n4)c3)c3ccccc23)cc(C(C)(C)C)cc1P(C)(C)=O [15(ar), 1-(5-(tert-butyl)-3-(dimethylphosphoryl)-2-methoxyphenyl)-3-(4-((2-((2-methyl-2H-1,2,3-triazol-4-yl)amino)pyridin-4-yl)oxy)naphthalen-1-yl)urea]	0.8	356	
COc1cc(Nc2cc(Oc3ccc(NC(=O)Nc4cc(C(C)(C)C)cc(C(=O)NCCN5CCNCC5)c4OC)c4ccccc34)ccn2)cc(OC)c1 [79(h), 5-(tert-Butyl)-3-(3-(4-((2-((3,5-dimethoxyphenyl)amino)pyridin-4-yl)oxy)naphthalen-1-yl)ureido)-2-methoxy-N-(2-(piperazin-1-yl)ethyl)benzamide]	16.4		
COc1cc(Nc2nccc(Oc3ccc(NC(=O)Nc4cc(C(C)(C)C)cc(S(C)(=O)=O)c4OC)c4ccccc34)n2)ccc1C(=O)O [79(i), 4-((4-((4-(3-(5-(tert-Butyl)-2-methoxy-3-(methylsulfonyl)phenyl)ureido)naphthalen-1-yl)oxy)pyrimidin-2-yl)amino)-2-methoxybenzoic acid]	12.2		
COc1cc(Nc2nccc(Oc3ccc(NC(=O)Nc4cc(C(C)(C)C)cc([S+](C)[O-])c4OC)c4ccccc34)n2)ccc1C(=O)O (stereo not drawn) [79(j), 4-((4-((4-(3-(5-(tert-Butyl)-2-methoxy-3-(methylsulfinyl)phenyl)ureido)naphthalen-1-yl)oxy)pyrimidin-2-yl)amino)-2-methoxybenzoic acid]	15.3		
COc1cc(Nc2cc(Oc3ccc(NC(=O)Nc4cc(C(C)(C)C)cc(P(C)(C)=O)c4OC)c4ccccc34)ccn2)cc(C(=O)N(C)CCN2CCN(C)CC2)c1 [79(k), 3-((4-((4-(3-(5-(tert-Butyl)-3-(dimethylphosphoryl)-2-methoxyphenyl)ureido)naphthalen-1-yl)oxy)pyridin-2-yl)amino)-5-methoxy-N-methyl-N-(2-(4-methylpiperazin-1-yl)ethyl)benzamide]	7		
COc1cc(Nc2cc(Oc3ccc(NC(=O)Nc4cc(C(C)(C)C)cc(P(C)(C)=O)c4OC)c4ccccc34)ccn2)cc(C(=O)N(C)CCC2CCN(C)CC2)c1 [79(l), 3-((4-((4-(3-(5-(tert-Butyl)-3-(dimethylphosphoryl)-2-methoxyphenyl)ureido)naphthalen-1-yl)oxy)pyridin-2-yl)amino)-5-methoxy-N-methyl-N-(2-(1-methylpiperidin-4-yl)ethyl)benzamide]	22.5		
COCCOCCOCCNC(=O)c1cc(Nc2nccc(Oc3ccc(NC(=O)Nc4cc(C(C)(C)C)cc(CNC(=O)CN(C)C)c4OC)c4ccccc34)n2)cc(OC)c1 [Example 81, 3-((4-((4-(3-(5-(tert-Butyl)-3-((2-(dimethylamino)acetamido)methyl)-2-methoxyphenyl)ureido)-naphthalen-1-yl)oxy)pyrimidin-2-yl)amino)-5-methoxy-N-(2-(2-(2-methoxyethoxy)ethoxy)-ethyl)benzamide]	0.4		
COCCOCCOCCNC(=O)c1cc(Nc2cc(Oc3ccc(NC(=O)Nc4cc(C(C)(C)C)cc(CN5CCN(C)CC5)c4OC)c4ccccc34)ccn2)cc(OC)c1 [Example 82, 3-((4-((4-(3-(5-(tert-Butyl)-2-methoxy-3-((4-methylpiperazin-1-yl)methyl)phenyl)ureido)-naphthalen-1-yl)oxy)pyridin-2-yl)amino)-5-methoxy-N-(2-(2-(2-methoxyethoxy)ethoxy)ethyl)-benzamide]	1.7		
COc1cc(Nc2nccc(Oc3ccc(NC(=O)Nc4cc(C(C)(C)C)cc([S+](C)[O-])c4OC)c4ccccc34)n2)cc(C(=O)NCCN2CCN(C)CC2)c1 (stereo not drawn) [Example 83, 3-((4-((4-(3-(5-(tert-Butyl)-2-methoxy-3-(methylsulfinyl)phenyl)ureido)naphthalen-1-yl)oxy)pyrimidin-2-yl)amino)-5-methoxy-N-(2-(4-methylpiperazin-1-yl)ethyl)benzamide]	1.5		
